The text below walks through data of US20260248771A1, “VALBENAZINE, A VMAT2 INHIBITOR, AS A FREE BASE A TOSYLATE OR DITOSYLATE SALT, FOR USE IN THE TREATMENT OF CHOREA ASSOCIATED WITH HUNTINGTON'S DISEASE” (Neurocrine Biosciences, Inc., priority 2022, published 2026).

Common to all, as to format: in vivo, human
Assay [1] relates to subjects with HD. The experiment in a line: Phase 3 study: Clinical Global Impression of Change (CGI-C) response status. An excerpt: As used herein, “Clinical Global Impression of Change” or CGI-C refers to a rating instrument based on a 7-point scale (range: 1=very much improved to 7-very much worse) that can be used to rate the overall global improvement of chorea since the initiation of study drug dosing. This scale is a modification of a scale developed by the Psychopharmacology Research Branch of the National Institute of Mental Health to rate the subject's overall improvement in clinical disorder and provides a global evaluation of improvement over time from the clinician's perspective.
In certain embodiments, the method is effective to result in an improvement in Clinical Global Impression of Change (CGI-C) response status, wherein subjects whose score is either a 1 (“very much improved”) or a 2 (“much improved”) in CGI-C were classified as responders. In certain embodiments, at least about 9% of subjects were classified as responders. In certain embodiments, at least about 10%, such as at least about 15%, at least about 20%, at least about 25%, or at least about 30% of subjects were classified as responders. In certain embodiments, at least about 25%, or at least about 30% of subjects were classified as responders after 12 weeks of treatment.
A Phase 3, randomized, double-blind, placebo-controlled study to evaluate the efficacy, safety, and tolerability of once-daily valbenazine in subjects with HD was conducted. The study included a 4-week screening period, an 8-week dose-adjustment period, a 4-week maintenance period, and a final study visit 2 weeks following the final dose of study drug.
Secondary endpoints included: • Clinical Global Impression of Change (CGI-C) response status ([…] of “very much improved” or “much improved”) at Week 12; • Patient Global Impression of Change (PGI-C) response status ([…] of “very much improved” or “much improved”) at Week 12; • Change from baseline to Week 12 in the Quality of Life in Neurological Disorders Upper Extremity Function; and • Change from baseline to Week 12 in the Neuro-QoL Lower Extremity Function.
(§1) Exploratory endpoints included: • Wearable movement sensors (in select sites; optional participation) using MC10 Inc., BIOSTAMP® NPOINT® system • Huntington Disease Health Index • Changes from the screening period baseline to each postbaseline study visit (Weeks 2 through 12) in the TMC based on site assessments • Changes from the screening period baseline to maintenance (the average of the Week 10 and Week 12 assessments) in the TMC based on video recording central rater assessments • CGI-C response at Weeks 2 through 10 • PGI-C response at Weeks 2 through 10 • The change from baseline to Weeks 4, 8, and 10 in the Neuro-QoL Upper Extremity Function T-score. • The change from baseline to Weeks 4, 8, and 10 in the Neuro-QoL Lower Extremity Function T-score • CGI-S at Weeks 2 through 12 • PGI-S at Weeks 2 through 12 • SF-36 at Week 12 • HD-HI at Week 10 and Week 12 • EQ-5D-5L at Week 10 and Week 12 • UHDRS scores for motor, behavior, and functional capacity assessment at Weeks 2 through 12 • Other UHDRS scores including functional assessment and independence scale at Week 12 • AS at Week 12 • Change from screening period in physical activity by movement sensors at the Week 10 visit period

Assay [2] concerns subjects with HD. The experiment in a line: Phase 3 study: Anosognosia Scale. Particulars: baseline to Week 12; either treatment group.
Text: as §1

Assay [3] concerns subjects with HD. Kind of assay: Phase 3 study: UHDRS total motor score (TMS). Particulars: MMRM model; valbenazine vs placebo. An excerpt: As used herein, “Unified Huntington Disease Rating Scale” or “UHDRS” is the standard clinical assessment tool in Huntington disease. The UHDRS is divided into four domains: motor performance, cognitive function, behavioral abnormalities, and functional abilities. The motor section consists of 31 items assessing oculomotor, bradykinesia/rigidity, dystonia, chorea, and gait/balance. The items are rated from zero to four, with zero indicating normal findings and four indicating severe abnormalities. The range of the Total Motor Score (TMS) is 0 to 124, with higher scores indicating more severe motor impairment. The cognitive component includes the verbal fluency test, the symbol digit modalities test, and the Stroop test (color naming, word reading, and interference). Lower scores indicate worse cognitive performance. The behavioral assessment measures the frequency and severity of 11 items, which are rated from zero (almost never/absent) to four (almost always/severe). The items assess depression, anxiety, aggression, psychosis, and other behavioral abnormalities. The behavioral score ranges from 0 to 88, with higher scores indicating more severe psychiatric abnormalities. The functional domain comprises three components, namely the total functional capacity (TFC), the functional assessment scale (FAS), and the independence scale (IS). […]

For the compound `COc1cc2c(cc1OC)[C@H]1C[C@@H](OC(=O)[C@@H](N)C(C)C)[C@H](CC(C)C)CN1CC2` [Valbenazine, (S)-2-amino-3-methyl-butyric acid (2R,3R,11bR)-3-isobutyl-9,10-dimethoxy-1,3,4,6,7,11b-hexahydro-2H-pyrido[2,1-a]isoquinolin-2-yl ester], the “CGI-C response rate difference between treatment groups (valbenazine minus placebo)” value in the assay on subjects with HD [1] (Week 2) is “follows: Week 2 (7.71% [95% CI: −0.93, 17.87], nominal p = 0.1157),”; in the assay on subjects with HD [1] (Week 4), “Week 4 (20.42% [95% CI: 7.53, 33.00], nominal p = 0.0012), Week 6”; with subjects with HD [1] (Week 6), “(20.14% [95% CI: 4.04, 35.89], nominal p = 0.0151), Week 8”; with subjects with HD [1] (Week 8), “(34.50% [95% CI: 16.46, 49.76], nominal p = 0.0001), and Week 10”; with subjects with HD [1] (Week 10) it was “(24.80% [95% CI: 6.55, 41.18], nominal p = 0.0065)”. The “CGI-C @ week 12, % responders” value in the assay on subjects with HD [1] (Week 12, valbenazine group) was found to be 42.9%. Also, the “CGI-C @ week 12, % responders, Difference” value with subjects with HD [1] (Week 12, valbenazine vs placebo) came to 29.7%. The “Anosognosia Scale score, changes from baseline” value in the assay on subjects with HD [2] is reported as “No clinically meaningful changes were noted from baseline to Week”. For the same compound, in the assay with subjects with HD [3], the “TMS score LS mean difference, change from screening period baseline to maintenance” value is listed as “groups: LS mean difference −3.99 (95% CI: −6.27, −1.70); p = 0.0008”.
